Entries after “also recorded” stand apart in the source; their conditions may differ.

The subject of assay [1] is T. cruzi infection in BESM cells. On the set-up: method as in PMID 20547819. Conditions: read-out: EC50 against T. cruzi infection in BESM cells; cited from earlier work.
Assay [2] deals with T1, Cruzain (Trypanosoma cruzi, UniProt P25779).
T1 construct: made in house
Put plainly: Cruzain enzyme assay (acetate buffer pH 5.5, Z-Phe-Arg-AMC). Format: biochemical. Conditions: 100 mM sodium acetate pH 5.5, 5 mM DTT. The protocol: Cruzain[27],[28], rhodesain [29], and tbcatB [30] were recombinantly expressed as described previously. TbcatB assays were performed as described previously.[31] Cruzain (2 nM) or rhodesain (3 nM) was incubated with 0.5 to 10 µM inhibitor concentration in 100 mM sodium acetate at pH 5.5, containing 5 mM DTT (buffer A) for 5 min at room temperature. Then buffer A containing Z-Phe-Arg-AMC (Bachem, K M = 1 µM) was added to enzyme inhibitor to give 20 µM substrate concentration in 200 µL, and the increase in fluorescence (excitation at 355 nm and emission at 460 nm) was followed with an automated microtiter plate spectrofluorometer (Molecular Devices, Flex station). Inhibitor stock solutions were prepared at 20 mM in DMSO, and serial dilutions were made in DMSO (0.7% DMSO in assay). Controls were performed using enzyme alone and enzyme with DMSO. IC50 values were determined graphically using inhibitor concentrations in the linear portion of a plot of inhibition versus log[I] […]
Inhibitor dilutions which produce simple exponential progress curves over a wide range of k obs, were used to determine kinetic parameters. The value of k obs, the rate constant for loss of enzyme activity, was determined from an equation for pseudo first order dynamics using Prism 4.0 (GraphPad). When k obs varied linearly with inhibitor concentration, k ass was determined by linear regression analysis. […]

Assay [3] deals with T2, Rhodesain (Trypanosoma brucei rhodesiense, UniProt Q95PM0).
T2 construct: made in house
T2 sequence (Q95PM0 entry or part of it): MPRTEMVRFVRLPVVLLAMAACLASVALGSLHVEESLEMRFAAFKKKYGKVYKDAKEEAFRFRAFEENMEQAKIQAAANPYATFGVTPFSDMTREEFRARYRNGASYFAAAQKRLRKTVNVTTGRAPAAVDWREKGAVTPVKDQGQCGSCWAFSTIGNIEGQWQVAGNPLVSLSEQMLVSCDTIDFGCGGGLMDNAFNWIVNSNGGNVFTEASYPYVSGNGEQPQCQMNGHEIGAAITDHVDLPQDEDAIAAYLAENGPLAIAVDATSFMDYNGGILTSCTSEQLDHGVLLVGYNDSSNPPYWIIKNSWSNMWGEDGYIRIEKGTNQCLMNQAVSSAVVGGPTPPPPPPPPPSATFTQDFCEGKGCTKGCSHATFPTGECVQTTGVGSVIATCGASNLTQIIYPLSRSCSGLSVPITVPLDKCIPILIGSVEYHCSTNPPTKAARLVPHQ
Put plainly: Rhodesain enzyme assay (acetate buffer pH 5.5, Z-Phe-Arg-AMC). Type of assay: biochemical, T. brucei. Conditions: 100 mM sodium acetate pH 5.5, 5 mM DTT. How it is done: (§1) Cruzain[27],[28], rhodesain [29], and tbcatB [30] were recombinantly expressed as described previously. TbcatB assays were performed as described previously.[31] Cruzain (2 nM) or rhodesain (3 nM) was incubated with 0.5 to 10 µM inhibitor concentration in 100 mM sodium acetate at pH 5.5, containing 5 mM DTT (buffer A) for 5 min at room temperature. Then buffer A containing Z-Phe-Arg-AMC (Bachem, K M = 1 µM) was added to enzyme inhibitor to give 20 µM substrate concentration in 200 µL, and the increase in fluorescence (excitation at 355 nm and emission at 460 nm) was followed with an automated microtiter plate spectrofluorometer (Molecular Devices, Flex station). Inhibitor stock solutions were prepared at 20 mM in DMSO, and serial dilutions were made in DMSO (0.7% DMSO in assay). Controls were performed using enzyme alone and enzyme with DMSO. IC50 values were determined graphically using inhibitor concentrations in the linear portion of a plot of inhibition versus log[I] (seven concentrations tested with at least two in the linear range).
(§2) Inhibitor dilutions which produce simple exponential progress curves over a wide range of k obs, were used to determine kinetic parameters. The value of k obs, the rate constant for loss of enzyme activity, was determined from an equation for pseudo first order dynamics using Prism 4.0 (GraphPad). When k obs varied linearly with inhibitor concentration, k ass was determined by linear regression analysis. If the variation was hyperbolic, indicating saturation inhibition kinetics, k inact and K i were determined from an equation describing a two-step irreversible inhibitor mechanism [k obs = k inact [I]o/([I]o+Ki* (1+[S]o/K M))] and non-linear regression analysis Prism 4.0.[32] All values were corrected for substrate concentration.

The target in assay [4] is T3, Cathepsin S (Homo sapiens, UniProt P25774).
T3 construct: Reaction Biology Corp (screening service)
T3 sequence (P25774 115-331, species assumed): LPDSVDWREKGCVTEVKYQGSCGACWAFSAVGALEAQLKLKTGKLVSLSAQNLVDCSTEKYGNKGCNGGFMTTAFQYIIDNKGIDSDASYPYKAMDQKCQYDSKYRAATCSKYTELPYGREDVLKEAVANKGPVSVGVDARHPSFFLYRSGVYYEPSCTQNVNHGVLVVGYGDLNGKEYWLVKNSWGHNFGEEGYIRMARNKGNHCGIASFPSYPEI
Briefly: Protease inhibition profiling (Reaction Biology Corp): Cathepsin S. Type of assay: biochemical.

In assay [5] the test system is T. cruzi infected J774 macrophages. Put plainly: T. cruzi growth inhibition in infected J774 macrophages (cell survival). Type of assay: cell-based, Trypanosoma cruzi CA-I/72. Conditions: 10 µM inhibitor every 48 h until Day 27, experiment terminated on Day 47, untreated control 6 days. The protocol:
CA-I/72 T. cruzi parasites were isolated from a chronic Chagasic patient, cloned, and maintained as previously described.[33]
For growth inhibition studies, J774 macrophages cultured in RPMI-1640 medium with 5% heat inactivated fetal calf serum (FCS) were irradiated (9000 rad) to arrest the cell cycle and plated onto 12-well tissue culture plates for 24 h at 37°C. After infection with 10^5 T. cruzi trypomastigotes per well for 2 hours, monolayers were washed with RPMI medium and treated with the inhibitors at 10 µM in RPMI medium (triplicate wells per inhibitor). Inhibitor stocks were made to 10 mM in DMSO and diluted prior to use. All assays include untreated, K11777-treated, and uninfected macrophage controls. Fresh medium with or without inhibitor was replaced every 48 h and inhibitor efficacy was monitored daily. Survival time was defined as the time before the cell monolayer was destroyed by the infection. Under these culture conditions, T. cruzi completed the intracellular cycle in 6 days in untreated controls. […] Macrophages were subsequently cultured in normal medium for up to 40 days to elucidate if the effective inhibitors were trypanocidal (cure host macrophages) or trypanostatic (delay intracellular cycle of the parasite).

Assay [6] deals with T4, Cathepsin V (Homo sapiens, UniProt O60911).
T4 construct: Reaction Biology Corp (screening service)
T4 sequence (O60911 114-334, species assumed): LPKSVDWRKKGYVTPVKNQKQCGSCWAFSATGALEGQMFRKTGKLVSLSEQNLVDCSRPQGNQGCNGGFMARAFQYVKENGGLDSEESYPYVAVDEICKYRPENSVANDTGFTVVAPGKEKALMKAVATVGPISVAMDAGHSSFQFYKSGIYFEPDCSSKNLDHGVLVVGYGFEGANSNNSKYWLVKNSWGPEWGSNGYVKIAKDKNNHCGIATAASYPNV
Put plainly: Protease inhibition profiling (Reaction Biology Corp): Cathepsin V. Format: biochemical.

Assay [7] addresses T5, tbcatB (Trypanosoma brucei, UniProt Q6R7Z5).
T5 construct: made in house
T5 sequence (Q6R7Z5 23-340): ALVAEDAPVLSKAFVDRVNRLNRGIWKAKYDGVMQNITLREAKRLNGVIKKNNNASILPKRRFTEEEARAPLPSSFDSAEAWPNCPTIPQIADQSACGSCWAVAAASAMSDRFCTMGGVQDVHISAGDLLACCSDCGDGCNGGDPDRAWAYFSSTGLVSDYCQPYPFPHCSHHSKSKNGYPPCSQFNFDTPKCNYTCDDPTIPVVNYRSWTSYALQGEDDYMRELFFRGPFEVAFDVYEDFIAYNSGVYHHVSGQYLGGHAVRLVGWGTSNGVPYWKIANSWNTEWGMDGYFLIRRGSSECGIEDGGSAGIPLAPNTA
Briefly: tbcatB enzyme assay. Format: biochemical. How it is done:
as §1, §2

Assay [8] has as its target T6, Cathepsin K (Homo sapiens, UniProt P43235).
T6 construct: Reaction Biology Corp (screening service)
T6 sequence (P43235 115-329): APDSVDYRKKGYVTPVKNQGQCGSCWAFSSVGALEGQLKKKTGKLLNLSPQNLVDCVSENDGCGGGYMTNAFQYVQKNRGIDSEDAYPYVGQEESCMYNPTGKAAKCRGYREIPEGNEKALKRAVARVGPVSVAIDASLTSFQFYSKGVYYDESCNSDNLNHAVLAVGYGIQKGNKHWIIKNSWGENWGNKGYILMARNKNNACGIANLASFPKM
Briefly: Protease inhibition profiling (Reaction Biology Corp): Cathepsin K. Format: biochemical.

Assay [9] deals with T7, Papain (Carica papaya, UniProt P00784).
T7 construct: Reaction Biology Corp (screening service)
T7 sequence (P00784 134-345): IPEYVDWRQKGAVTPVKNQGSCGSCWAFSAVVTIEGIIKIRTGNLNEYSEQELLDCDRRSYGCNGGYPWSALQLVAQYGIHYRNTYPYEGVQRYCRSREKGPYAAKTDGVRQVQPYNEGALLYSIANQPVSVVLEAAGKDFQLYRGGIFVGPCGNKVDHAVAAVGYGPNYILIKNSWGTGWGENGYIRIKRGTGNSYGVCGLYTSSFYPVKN
Put plainly: Protease inhibition profiling (Reaction Biology Corp): Papain. Format: biochemical.

Assay [10] addresses T8, Cathepsin C (Homo sapiens, UniProt P53634).
T8 construct: Reaction Biology Corp (screening service)
Put plainly: Protease inhibition profiling (Reaction Biology Corp): Cathepsin C. Format: biochemical.

The subject of assay [11] is T. cruzi CA-I/72 infected C3H mice. Briefly: Murine model of acute Chagas' disease. Type of assay: in vivo, mouse. Also on record: key to Histopathology, Heart / Histopathology, Liver / Histopathology, Spleen / Histopathology, Colon: I/I: Inflammation and infiltration; +10A: Numerous nests of T. cruzi amastigotes; +A: 1-3 nests of T. cruzi amastigotes; Negative. The protocol:
Three to four week old female C3H mice weighing ca. 20 g were used. The animals were separated into five lots of 5 mice per cage and infected with 10^6 tissue-culture derived trypomastigotes of the myotropic T. cruzi CA-I/72 cloned stock. The mice were treated with 100 mg compound/kg of body weight in 100 µL of solution (30–40% DMSO: 60–70% sterile distilled water) intraperitoneally twice a day. Treatment was initiated 12 h post infection and continued until cure, death of the animals, or for a total of 20 days. […] Parasitemias was determined at the end of the experiment when animals were euthanized. Tissues processed for histopathology include skeletal muscle, heart, liver, spleen, and colon. Blood (5–50 µL) was used for hemocultures. […] Compounds were considered toxic if life expectancy is lower than untreated controls (negative values). If necessary, PCR of blood and tissues was performed to confirm effectiveness of treatment and/or cure of treated animals. Results were expressed as survival (days) of treated animals.

The mark [12] stands for this setting: individual infected mice, 100 mg/kg ip.
Where [13] appears, read: individual infected mice, 100 mg/kg ip, 100 mg/kg.

T8 sequence (P53634 25-463, species assumed): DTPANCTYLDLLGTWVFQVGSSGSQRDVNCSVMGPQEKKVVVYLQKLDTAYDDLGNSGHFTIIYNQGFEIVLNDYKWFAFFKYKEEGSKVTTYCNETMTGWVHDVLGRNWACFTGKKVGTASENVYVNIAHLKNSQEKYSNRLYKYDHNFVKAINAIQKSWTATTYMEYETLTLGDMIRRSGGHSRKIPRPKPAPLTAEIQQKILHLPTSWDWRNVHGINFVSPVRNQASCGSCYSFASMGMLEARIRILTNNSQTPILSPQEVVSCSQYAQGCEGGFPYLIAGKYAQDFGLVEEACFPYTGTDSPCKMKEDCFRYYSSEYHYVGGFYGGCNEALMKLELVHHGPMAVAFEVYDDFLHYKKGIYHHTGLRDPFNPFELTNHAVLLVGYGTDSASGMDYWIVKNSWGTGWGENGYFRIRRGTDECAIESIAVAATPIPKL
T1 sequence (P25779 123-337 limits assumed): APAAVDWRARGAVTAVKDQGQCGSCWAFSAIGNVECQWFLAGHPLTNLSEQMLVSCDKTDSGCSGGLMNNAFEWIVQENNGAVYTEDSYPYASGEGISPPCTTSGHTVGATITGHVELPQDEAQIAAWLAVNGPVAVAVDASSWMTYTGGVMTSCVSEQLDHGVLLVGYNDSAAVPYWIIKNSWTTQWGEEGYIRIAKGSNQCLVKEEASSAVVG

`CC[C@@H]([C@H](C)O)n1ncn(-c2ccc(N3CCN(c4ccc(OC[C@@H]5CO[C@@](Cn6cncn6)(c6ccc(F)cc6F)C5)cc4)CC3)cc2)c1=O` [posaconazole]: the EC50 (as a rule, the concentration needed to bring the measured effect to its halfway point) in assay [1] was 200 nM.
As for `CN1CCN(C(=O)N[C@@H](Cc2ccccc2)C(=O)N[C@H](/C=C/S(=O)(=O)c2ccccc2)CCc2ccccc2)CC1` [K11777], in assay [2], the “k obs/[I] at 1 µM, Cruzain” value is 108,000±4,200 s^-1 M^-1. Moreover, the “k obs/[I] at 1 µM, Rhodesain” value in [3] is reported as 48,000±10,200 s^-1 M^-1. Further, in assay [4], the IC50 (as a rule, the midpoint of a concentration-inhibition curve) was determined as 0.6 nM. Also, in assay [1], the EC50 is 4200 nM. The “T. cruzi infected cell survival” value in assay [5] is reported as 47 days. In [6], inhibition was half-maximal at 1.2 nM (IC50). In assay [7], the “inhibition of tbcatB (in words)” value is “weak inhibitors” and the tbcatB k ass worked out at 500 ± 100 M⁻¹ s⁻¹. Further, in assay [7] (read-out: tbcatB % inhibition at 1 µM), the inhibition – broadly, the share of the control response that was lost under treatment – at 1 µM was 48%. This molecule also returned an IC50 in assay [8] of 25 nM. This molecule came in with an IC50 in assay [9] of 0.4 nM. This molecule also returned an IC50 in assay [10] of 0.4 nM. In [11] (100 mg inhibitor/kg body weight in two daily doses, intraperitoneally, untreated control 21 days), the “T. cruzi infected mouse survival” value is 110 days. In addition, the “survival of the acute infection” value in assay [11] (10^6 trypomastigotes CA-I/72, untreated controls died within 21–60 days) is given as “survived the acute infection”. Further, in [11] (setting [12]), the “Histopathology, Colon” value is “N”; the “Histopathology, Liver” value is given as “N”; the “Histopathology, Spleen” value is recorded as “N”. Also, in assay [11] (setting [13]), the “Histopathology, Heart” value is “Mild i/i and N”; the “Histopathology, Sk. muscle” value is “+AIntense i/i; also recorded: Moderate i/i; also recorded: +AModerate i/i; also recorded: Intense i/i”.
